Laboratory results reported in ChEMBL document CHEMBL4196076, “An access to a library of novel triterpene derivatives with a promising pharmacological potential by Ugi and Passerini multicomponent reactions” (Eur J Med Chem, 2018).

Tests used:
A2780 = assay: Cytotoxicity against human A2780 cells after 96 hrs by sulforhodamine-B assay; type: functional, cell-based; settings: A2780, 96 h
518A2 = assay: Cytotoxicity against human 518A2 cells after 96 hrs by sulforhodamine-B assay; type: functional, cell-based; settings: 518A2, 96 h
NIH3T3 = assay: Cytotoxicity against mouse NIH/3T3 cells after 96 hrs by sulforhodamine-B assay; type: cell-based; settings: NIH3T3, 96 h
MCF7 = assay: Cytotoxicity against human MCF7 cells after 96 hrs by sulforhodamine-B assay; type: functional, cell-based; settings: MCF7, 96 h
HT-29 = assay: Cytotoxicity against human HT-29 cells after 96 hrs by sulforhodamine-B assay; type: functional, cell-based; settings: HT-29, 96 h
FaDu = assay: Cytotoxicity against human FADU cells after 96 hrs by sulforhodamine-B assay; type: functional, cell-based
A549 = assay: Cytotoxicity against human A549 cells after 96 hrs by sulforhodamine-B assay; type: functional, cell-based; settings: A549, 96 h

Compound	EC50 (A2780) [µM]	EC50 (518A2) [µM]	EC50 (NIH3T3) [µM]	EC50 (MCF7) [µM]	EC50 (HT-29) [µM]	EC50 (FaDu) [µM]	EC50 (A549) [µM]
CCCCNC(=O)CN(Cc1ccccc1)C(=O)[C@]12CCC(C)(C)C[C@H]1C1=CC[C@@H]3[C@@]4(C)CC[C@H](O)C(C)(C)[C@@H]4CC[C@@]3(C)[C@]1(C)CC2	> 30	> 30	> 30	> 30	> 30	> 30	–
CC(C)NC(=O)CN(Cc1ccoc1)C(=O)[C@]12CCC(C)(C)C[C@H]1C1=CC[C@@H]3[C@@]4(C)CC[C@H](O)C(C)(C)[C@@H]4CC[C@@]3(C)[C@]1(C)CC2	5.9	5.5	5.5	4.9	4.9	7.9	–
CN(CC(=O)NC(C)(C)C)C(=O)[C@]12CCC(C)(C)C[C@H]1C1=CC[C@@H]3[C@@]4(C)CC[C@H](O)C(C)(C)[C@@H]4CC[C@@]3(C)[C@]1(C)CC2	11	7.9	11.2	12.2	13.8	8.1	8.6
CC(=O)O[C@H]1CC[C@]2(C)[C@H]3CC=C4[C@@H]5CC(C)(C)CC[C@]5(C(=O)N(CC(=O)NCc5ccccc5)Cc5ccoc5)CC[C@@]4(C)[C@]3(C)CC[C@H]2C1(C)C	6.3	15.9	> 30	15	> 30	22.1	> 30
CC(=O)O[C@@H]1C[C@]2(C)[C@H]3CC=C4[C@@H]5CC(C)(C)CC[C@]5(C(=O)OCC(=O)NCc5ccccc5)CC[C@@]4(C)[C@]3(C)CC[C@H]2C(C)(C)[C@H]1OC(C)=O	1	4.3	2	3.6	4.9	7.3	3.2
CC(=O)O[C@H]1CC[C@]2(C)[C@H]3CC=C4[C@@H]5CC(C)(C)CC[C@]5(C(=O)OCC(=O)NC(C)(C)C)CC[C@@]4(C)[C@]3(C)CC[C@H]2C1(C)C	8.8	13.2	20	12.9	27.4	12.7	13.2
CC1(C)CC[C@]2(C(=O)O)CC[C@]3(C)C(=CC[C@@H]4[C@@]5(C)C[C@@H](O)[C@H](O)C(C)(C)[C@@H]5CC[C@]43C)[C@@H]2C1 [MASLINIC ACID]	–	–	–	37.2	–	17	–
C=CCN(CC(=O)NCCCC)C(=O)[C@]12CCC(C)(C)C[C@H]1C1=CC[C@@H]3[C@@]4(C)CC[C@H](OC(C)=O)C(C)(C)[C@@H]4CC[C@@]3(C)[C@]1(C)CC2	3.1	15	> 30	> 30	> 30	16.1	> 30
C=CCN(CC(=O)NCc1ccccc1)C(=O)[C@]12CCC(C)(C)C[C@H]1C1=CC[C@@H]3[C@@]4(C)CC[C@H](O)C(C)(C)[C@@H]4CC[C@@]3(C)[C@]1(C)CC2	12.9	> 30	> 30	> 30	> 30	> 30	> 30
CCCCN(CC(=O)NCc1ccccc1)C(=O)[C@]12CCC(C)(C)C[C@H]1C1=CC[C@@H]3[C@@]4(C)CC[C@H](O)C(C)(C)[C@@H]4CC[C@@]3(C)[C@]1(C)CC2	> 30	> 30	> 30	24.6	15.6	> 30	–
CC(=O)O[C@H]1CC[C@]2(C)[C@H]3CC=C4[C@@H]5CC(C)(C)CC[C@]5(C(=O)N(CC(=O)NCc5ccccc5)C(C)C)CC[C@@]4(C)[C@]3(C)CC[C@H]2C1(C)C	8.3	20.9	10.2	9.7	14.1	10.1	14.9
CC(=O)O[C@H]1CC[C@]2(C)[C@H]3CC=C4[C@@H]5CC(C)(C)CC[C@]5(C(=O)N(CC(=O)NC(C)(C)C)Cc5ccoc5)CC[C@@]4(C)[C@]3(C)CC[C@H]2C1(C)C	7.1	24.7	> 30	19.8	> 30	29.1	24.2
CC1(C)CC[C@]2(C(=O)O)CC[C@]3(C)C(=CC[C@@H]4[C@@]5(C)CC[C@H](O)C(C)(C)[C@@H]5CC[C@]43C)[C@@H]2C1 [OLEANOLIC_ACID]	58.2	61.3	57.9	49.1	44.9	66.7	64.1
CC(=O)O[C@H]1CC[C@]2(C)[C@H]3CC=C4[C@@H]5CC(C)(C)CC[C@]5(C(=O)OCC(=O)NCc5ccccc5)CC[C@@]4(C)[C@]3(C)CC[C@H]2C1(C)C	6.8	7.7	6.4	6.4	11.3	7.2	6.9
